Data reported in patent US9340590B2 (priority 2011, dated 2016).
pIC50: −log10 of the molar value. Positions of bridges follow the written chain, without caps; N, C: chain ends. Residues, ends and D or L forms follow the SMILES beside them.

Experiments:
Test in all cases: cell-based
hNav1.3 = hNav1.3 (Homo sapiens, UniProt Q9NY46); details: IonWorks Quattro, use-dependent block, hNav1.3; read-out: IWQ Use Nav1.3
hNav1.5 = hNav1.5 (Homo sapiens, UniProt Q14524); details: IonWorks Quattro, use-dependent block, hNav1.5; read-out: IWQ Use Nav1.5
hNav1.7 = hNav1.7 (Homo sapiens, UniProt Q15858); type: cell-based; details: IonWorks Quattro, use-dependent block, hNav1.7; read-out: IWQ Use Nav1.7

Sequence of hNav1.3 (Q9NY46 whole entry, looked up): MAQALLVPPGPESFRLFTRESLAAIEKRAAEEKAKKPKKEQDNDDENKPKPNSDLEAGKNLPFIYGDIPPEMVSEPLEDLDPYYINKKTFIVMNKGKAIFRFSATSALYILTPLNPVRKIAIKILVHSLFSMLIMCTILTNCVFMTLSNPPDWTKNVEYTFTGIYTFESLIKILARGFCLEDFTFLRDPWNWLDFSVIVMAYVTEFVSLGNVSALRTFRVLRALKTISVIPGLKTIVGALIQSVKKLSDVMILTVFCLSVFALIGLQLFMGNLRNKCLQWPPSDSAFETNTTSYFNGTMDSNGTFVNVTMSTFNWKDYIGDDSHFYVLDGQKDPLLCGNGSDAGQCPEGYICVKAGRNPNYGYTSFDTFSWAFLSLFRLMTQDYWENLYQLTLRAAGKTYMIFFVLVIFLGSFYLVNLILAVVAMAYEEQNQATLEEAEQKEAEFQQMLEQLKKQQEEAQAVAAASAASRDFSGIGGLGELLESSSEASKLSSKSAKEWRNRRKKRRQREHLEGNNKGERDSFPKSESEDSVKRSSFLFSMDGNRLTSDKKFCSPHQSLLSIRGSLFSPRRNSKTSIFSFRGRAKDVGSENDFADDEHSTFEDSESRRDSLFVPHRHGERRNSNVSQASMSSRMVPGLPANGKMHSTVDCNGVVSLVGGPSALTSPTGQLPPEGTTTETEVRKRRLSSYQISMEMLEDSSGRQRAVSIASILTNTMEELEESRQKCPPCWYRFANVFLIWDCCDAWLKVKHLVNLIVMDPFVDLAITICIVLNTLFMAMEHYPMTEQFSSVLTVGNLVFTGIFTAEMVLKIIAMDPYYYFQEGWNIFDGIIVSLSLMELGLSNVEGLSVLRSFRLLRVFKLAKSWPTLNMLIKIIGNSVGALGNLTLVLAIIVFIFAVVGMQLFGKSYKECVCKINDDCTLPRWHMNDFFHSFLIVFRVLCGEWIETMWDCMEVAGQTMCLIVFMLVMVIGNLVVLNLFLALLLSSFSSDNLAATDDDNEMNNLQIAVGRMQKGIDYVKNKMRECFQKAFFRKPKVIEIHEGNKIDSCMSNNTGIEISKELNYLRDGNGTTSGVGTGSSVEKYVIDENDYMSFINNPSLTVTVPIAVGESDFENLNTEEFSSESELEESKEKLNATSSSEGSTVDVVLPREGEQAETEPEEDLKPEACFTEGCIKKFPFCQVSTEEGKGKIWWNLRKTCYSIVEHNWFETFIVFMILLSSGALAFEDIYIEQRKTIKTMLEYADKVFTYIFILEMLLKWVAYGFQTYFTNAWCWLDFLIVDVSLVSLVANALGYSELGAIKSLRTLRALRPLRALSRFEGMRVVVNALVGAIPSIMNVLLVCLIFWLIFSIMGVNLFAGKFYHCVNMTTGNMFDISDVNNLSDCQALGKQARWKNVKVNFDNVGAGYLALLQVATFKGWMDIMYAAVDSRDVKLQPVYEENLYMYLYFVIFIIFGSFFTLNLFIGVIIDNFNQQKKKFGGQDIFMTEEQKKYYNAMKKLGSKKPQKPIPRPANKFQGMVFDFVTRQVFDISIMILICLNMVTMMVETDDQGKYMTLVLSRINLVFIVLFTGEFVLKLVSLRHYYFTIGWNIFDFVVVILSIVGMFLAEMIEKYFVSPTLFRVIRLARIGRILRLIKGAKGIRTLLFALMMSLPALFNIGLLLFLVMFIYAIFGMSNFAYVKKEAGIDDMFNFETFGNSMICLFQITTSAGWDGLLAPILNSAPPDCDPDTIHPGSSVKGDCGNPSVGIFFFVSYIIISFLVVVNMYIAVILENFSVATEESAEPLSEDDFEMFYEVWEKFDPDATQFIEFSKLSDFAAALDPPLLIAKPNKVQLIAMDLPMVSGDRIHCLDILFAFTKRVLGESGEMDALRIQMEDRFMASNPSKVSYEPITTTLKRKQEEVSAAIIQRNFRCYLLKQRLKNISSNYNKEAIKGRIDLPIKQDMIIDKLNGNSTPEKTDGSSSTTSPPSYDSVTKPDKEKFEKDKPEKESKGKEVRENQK
Sequence of hNav1.5 (Q14524 whole entry, looked up): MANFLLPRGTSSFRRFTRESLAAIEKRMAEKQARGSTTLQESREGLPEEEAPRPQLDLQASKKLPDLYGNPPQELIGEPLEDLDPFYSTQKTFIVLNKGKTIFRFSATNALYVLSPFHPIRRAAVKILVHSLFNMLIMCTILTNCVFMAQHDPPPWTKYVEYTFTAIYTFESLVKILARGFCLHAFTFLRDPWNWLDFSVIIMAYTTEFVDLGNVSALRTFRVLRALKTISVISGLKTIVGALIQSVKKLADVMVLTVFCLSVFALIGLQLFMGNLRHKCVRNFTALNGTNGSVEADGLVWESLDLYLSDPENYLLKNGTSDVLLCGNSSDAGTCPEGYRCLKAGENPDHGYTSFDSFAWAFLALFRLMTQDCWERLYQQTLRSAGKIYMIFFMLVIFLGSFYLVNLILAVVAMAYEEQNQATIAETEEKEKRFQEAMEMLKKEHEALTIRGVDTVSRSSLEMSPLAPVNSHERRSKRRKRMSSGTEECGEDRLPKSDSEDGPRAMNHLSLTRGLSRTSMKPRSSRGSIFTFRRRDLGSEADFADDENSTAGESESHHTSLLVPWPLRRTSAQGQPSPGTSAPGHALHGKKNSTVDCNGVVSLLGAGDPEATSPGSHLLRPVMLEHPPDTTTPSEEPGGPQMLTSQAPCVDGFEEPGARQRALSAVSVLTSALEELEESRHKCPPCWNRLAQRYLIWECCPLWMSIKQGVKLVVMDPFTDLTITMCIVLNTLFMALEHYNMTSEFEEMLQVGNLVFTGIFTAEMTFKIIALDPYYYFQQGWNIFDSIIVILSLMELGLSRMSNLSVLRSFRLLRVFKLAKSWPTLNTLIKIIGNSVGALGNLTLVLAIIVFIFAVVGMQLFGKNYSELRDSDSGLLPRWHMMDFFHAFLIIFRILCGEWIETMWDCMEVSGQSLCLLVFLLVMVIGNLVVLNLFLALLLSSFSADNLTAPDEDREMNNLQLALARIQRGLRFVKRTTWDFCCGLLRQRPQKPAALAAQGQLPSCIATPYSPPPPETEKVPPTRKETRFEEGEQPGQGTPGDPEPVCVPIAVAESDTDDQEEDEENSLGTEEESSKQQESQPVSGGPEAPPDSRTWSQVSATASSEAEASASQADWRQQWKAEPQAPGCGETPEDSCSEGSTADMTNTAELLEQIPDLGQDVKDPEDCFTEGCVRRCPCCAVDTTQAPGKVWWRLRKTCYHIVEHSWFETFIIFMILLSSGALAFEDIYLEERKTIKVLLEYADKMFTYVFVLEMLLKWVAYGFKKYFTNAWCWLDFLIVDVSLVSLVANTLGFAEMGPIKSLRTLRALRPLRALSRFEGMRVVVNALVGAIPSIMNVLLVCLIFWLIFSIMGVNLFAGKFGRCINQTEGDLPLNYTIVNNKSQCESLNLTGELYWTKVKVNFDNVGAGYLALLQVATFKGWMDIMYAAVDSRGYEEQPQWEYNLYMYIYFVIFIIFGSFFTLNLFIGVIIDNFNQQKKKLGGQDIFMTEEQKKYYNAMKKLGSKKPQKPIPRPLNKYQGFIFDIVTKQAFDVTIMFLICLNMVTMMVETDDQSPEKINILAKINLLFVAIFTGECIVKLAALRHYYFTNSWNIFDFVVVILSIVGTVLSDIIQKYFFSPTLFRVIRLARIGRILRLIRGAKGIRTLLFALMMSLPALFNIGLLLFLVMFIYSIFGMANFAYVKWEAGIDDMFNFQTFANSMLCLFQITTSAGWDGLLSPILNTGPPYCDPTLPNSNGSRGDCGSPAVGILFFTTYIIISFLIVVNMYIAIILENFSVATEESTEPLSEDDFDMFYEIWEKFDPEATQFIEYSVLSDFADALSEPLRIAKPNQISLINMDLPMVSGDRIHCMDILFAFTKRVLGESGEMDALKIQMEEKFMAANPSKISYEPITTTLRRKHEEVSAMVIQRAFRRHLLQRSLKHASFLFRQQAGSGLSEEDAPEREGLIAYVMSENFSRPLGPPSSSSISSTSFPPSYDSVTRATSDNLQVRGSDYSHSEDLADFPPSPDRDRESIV

Compound	pIC50 (hNav1.3)	pIC50 (hNav1.5)	pIC50 (hNav1.7)
CC[C@H](C)[C@@H]1NC(=O)[C@@H]2CSSC[C@@H]3NC(=O)[C@H](C(C)C)NC(=O)[C@H](CC(C)C)NC(=O)[C@H](CC(N)=O)NC(=O)[C@@H]4CCCN4C(=O)[C@H](CCCNC(=N)N)NC(=O)[C@H](CSSC[C@H](NC(=O)[C@@H](N)CC(=O)O)C(=O)N[C@@H](CC(C)C)C(=O)NCC(=O)N[C@@H](C)C(=O)N[C@@H](Cc4ccccc4)C(=O)N[C@@H](CCCNC(=N)N)C(=O)N[C@@H](CCCCN)C(=O)N2)NC(=O)[C@H](CSSC[C@@H](C(=O)N[C@@H](CCCCN)C(=O)N[C@@H](Cc2ccc(O)cc2)C(=O)N[C@H](C(=O)N[C@@H](Cc2ccccc2)C(=O)O)C(C)C)NC(=O)[C@H](Cc2c[nH]c4ccccc24)NC(=O)[C@H](CC(C)C)NC(=O)[C@H](Cc2c[nH]cn2)NC(=O)[C@H]([C@@H](C)O)NC(=O)[C@H](CCCNC(=N)N)NC(=O)[C@H](CO)NC3=O)NC(=O)[C@H](CCCCN)NC(=O)[C@H](CC(=O)O)NC(=O)[C@H](CC(N)=O)NC(=O)[C@H](CC(=O)O)NC(=O)[C@@H]2CCCN2C1=O [compound 830] (H-DCLGAFRKCIPDNDKCCRPNLVCSRTHLWCKYVF-OH; disulfide 2-17, 9-23, 16-30)	< 5.30	< 5.30	< 5.30
CC[C@H](C)[C@@H]1NC(=O)[C@@H]2CSSC[C@@H]3NC(=O)[C@H](C(C)C)NC(=O)[C@H](CC(C)C)NC(=O)[C@H](CC(N)=O)NC(=O)[C@@H]4CCCN4C(=O)[C@H](CCCNC(=N)N)NC(=O)[C@H](CSSC[C@H](NC(=O)[C@@H](N)CC(=O)O)C(=O)N[C@@H](CC(C)C)C(=O)NCC(=O)N[C@@H](C)C(=O)N[C@@H](Cc4ccccc4)C(=O)N[C@@H](CCCNC(=N)N)C(=O)N[C@@H](CCCCN)C(=O)N2)NC(=O)[C@H](CSSC[C@@H](C(=O)N[C@@H](CCCCN)C(=O)N[C@@H](Cc2ccc(O)cc2)C(=O)N[C@H](C(=O)N[C@@H](Cc2ccccc2)C(=O)O)C(C)C)NC(=O)[C@H](Cc2c[nH]c4ccccc24)NC(=O)[C@H](CCSC)NC(=O)[C@H](Cc2c[nH]cn2)NC(=O)[C@H]([C@@H](C)O)NC(=O)[C@H](CCCNC(=N)N)NC(=O)[C@H](CO)NC3=O)NC(=O)[C@H](CCCCN)NC(=O)[C@H](CC(=O)O)NC(=O)[C@H](CC(N)=O)NC(=O)[C@H](CC(=O)O)NC(=O)[C@@H]2CCCN2C1=O [compound 831] (H-DCLGAFRKCIPDNDKCCRPNLVCSRTHMWCKYVF-OH; disulfide 2-17, 9-23, 16-30)	5.80	< 5.30	< 5.30
CC[C@H](C)[C@@H]1NC(=O)[C@@H]2CSSC[C@@H]3NC(=O)[C@H](C(C)C)NC(=O)[C@H](CC(C)C)NC(=O)[C@H](CC(N)=O)NC(=O)[C@@H]4CCCN4C(=O)[C@H](CCCNC(=N)N)NC(=O)[C@H](CSSC[C@H](NC(=O)[C@@H](N)CC(=O)O)C(=O)N[C@@H](CC(C)C)C(=O)NCC(=O)N[C@@H](C)C(=O)N[C@@H](Cc4ccccc4)C(=O)N[C@@H](CCCNC(=N)N)C(=O)N[C@@H](CCCCN)C(=O)N2)NC(=O)[C@H](CSSC[C@@H](C(=O)N[C@@H](CCCCN)C(=O)N[C@@H](Cc2ccc(O)cc2)C(=O)N[C@H](C(=O)N[C@@H](Cc2ccccc2)C(=O)O)C(C)C)NC(=O)[C@H](Cc2c[nH]c4ccccc24)NC(=O)[C@H](CC(N)=O)NC(=O)[C@H](Cc2c[nH]cn2)NC(=O)[C@H]([C@@H](C)O)NC(=O)[C@H](CCCNC(=N)N)NC(=O)[C@H](CO)NC3=O)NC(=O)[C@H](CCCCN)NC(=O)[C@H](CC(=O)O)NC(=O)[C@H](CC(N)=O)NC(=O)[C@H](CC(=O)O)NC(=O)[C@@H]2CCCN2C1=O [compound 832] (H-DCLGAFRKCIPDNDKCCRPNLVCSRTHNWCKYVF-OH; disulfide 2-17, 9-23, 16-30)	5.34	< 5.30	< 5.30
CC[C@H](C)[C@@H]1NC(=O)[C@@H]2CSSC[C@@H]3NC(=O)[C@H](C(C)C)NC(=O)[C@H](CC(C)C)NC(=O)[C@H](CC(N)=O)NC(=O)[C@@H]4CCCN4C(=O)[C@H](CCCNC(=N)N)NC(=O)[C@H](CSSC[C@H](NC(=O)[C@@H](N)CC(=O)O)C(=O)N[C@@H](CC(C)C)C(=O)NCC(=O)N[C@@H](C)C(=O)N[C@@H](Cc4ccccc4)C(=O)N[C@@H](CCCNC(=N)N)C(=O)N[C@@H](CCCCN)C(=O)N2)NC(=O)[C@H](CSSC[C@@H](C(=O)N[C@@H](CCCCN)C(=O)N[C@@H](Cc2ccc(O)cc2)C(=O)N[C@H](C(=O)N[C@@H](Cc2ccccc2)C(=O)O)C(C)C)NC(=O)[C@H](Cc2c[nH]c4ccccc24)NC(=O)[C@@H]2CCCN2C(=O)[C@H](Cc2c[nH]cn2)NC(=O)[C@H]([C@@H](C)O)NC(=O)[C@H](CCCNC(=N)N)NC(=O)[C@H](CO)NC3=O)NC(=O)[C@H](CCCCN)NC(=O)[C@H](CC(=O)O)NC(=O)[C@H](CC(N)=O)NC(=O)[C@H](CC(=O)O)NC(=O)[C@@H]2CCCN2C1=O [compound 833] (H-DCLGAFRKCIPDNDKCCRPNLVCSRTHPWCKYVF-OH; disulfide 2-17, 9-23, 16-30)	< 5.30	< 5.30	< 5.30
CC[C@H](C)[C@@H]1NC(=O)[C@@H]2CSSC[C@@H]3NC(=O)[C@H](C(C)C)NC(=O)[C@H](CC(C)C)NC(=O)[C@H](CC(N)=O)NC(=O)[C@@H]4CCCN4C(=O)[C@H](CCCNC(=N)N)NC(=O)[C@H](CSSC[C@H](NC(=O)[C@@H](N)CC(=O)O)C(=O)N[C@@H](CC(C)C)C(=O)NCC(=O)N[C@@H](C)C(=O)N[C@@H](Cc4ccccc4)C(=O)N[C@@H](CCCNC(=N)N)C(=O)N[C@@H](CCCCN)C(=O)N2)NC(=O)[C@H](CSSC[C@@H](C(=O)N[C@@H](CCCCN)C(=O)N[C@@H](Cc2ccc(O)cc2)C(=O)N[C@H](C(=O)N[C@@H](Cc2ccccc2)C(=O)O)C(C)C)NC(=O)[C@H](Cc2c[nH]c4ccccc24)NC(=O)[C@H](CCC(N)=O)NC(=O)[C@H](Cc2c[nH]cn2)NC(=O)[C@H]([C@@H](C)O)NC(=O)[C@H](CCCNC(=N)N)NC(=O)[C@H](CO)NC3=O)NC(=O)[C@H](CCCCN)NC(=O)[C@H](CC(=O)O)NC(=O)[C@H](CC(N)=O)NC(=O)[C@H](CC(=O)O)NC(=O)[C@@H]2CCCN2C1=O [compound 834] (H-DCLGAFRKCIPDNDKCCRPNLVCSRTHQWCKYVF-OH; disulfide 2-17, 9-23, 16-30)	5.41	< 5.30	< 5.30
CC[C@H](C)[C@@H]1NC(=O)[C@@H]2CSSC[C@@H]3NC(=O)[C@H](C(C)C)NC(=O)[C@H](CC(C)C)NC(=O)[C@H](CC(N)=O)NC(=O)[C@@H]4CCCN4C(=O)[C@H](CCCNC(=N)N)NC(=O)[C@H](CSSC[C@H](NC(=O)[C@@H](N)CC(=O)O)C(=O)N[C@@H](CC(C)C)C(=O)NCC(=O)N[C@@H](C)C(=O)N[C@@H](Cc4ccccc4)C(=O)N[C@@H](CCCNC(=N)N)C(=O)N[C@@H](CCCCN)C(=O)N2)NC(=O)[C@H](CSSC[C@@H](C(=O)N[C@@H](CCCCN)C(=O)N[C@@H](Cc2ccc(O)cc2)C(=O)N[C@H](C(=O)N[C@@H](Cc2ccccc2)C(=O)O)C(C)C)NC(=O)[C@H](Cc2c[nH]c4ccccc24)NC(=O)[C@H](CO)NC(=O)[C@H](Cc2c[nH]cn2)NC(=O)[C@H]([C@@H](C)O)NC(=O)[C@H](CCCNC(=N)N)NC(=O)[C@H](CO)NC3=O)NC(=O)[C@H](CCCCN)NC(=O)[C@H](CC(=O)O)NC(=O)[C@H](CC(N)=O)NC(=O)[C@H](CC(=O)O)NC(=O)[C@@H]2CCCN2C1=O [compound 835] (H-DCLGAFRKCIPDNDKCCRPNLVCSRTHSWCKYVF-OH; disulfide 2-17, 9-23, 16-30)	< 5.30	< 5.30	< 5.30
CC[C@H](C)[C@@H]1NC(=O)[C@@H]2CSSC[C@@H]3NC(=O)[C@H](C(C)C)NC(=O)[C@H](CC(C)C)NC(=O)[C@H](CC(N)=O)NC(=O)[C@@H]4CCCN4C(=O)[C@H](CCCNC(=N)N)NC(=O)[C@H](CSSC[C@H](NC(=O)[C@@H](N)CC(=O)O)C(=O)N[C@@H](CC(C)C)C(=O)NCC(=O)N[C@@H](C)C(=O)N[C@@H](Cc4ccccc4)C(=O)N[C@@H](CCCNC(=N)N)C(=O)N[C@@H](CCCCN)C(=O)N2)NC(=O)[C@H](CSSC[C@@H](C(=O)N[C@@H](CCCCN)C(=O)N[C@@H](Cc2ccc(O)cc2)C(=O)N[C@H](C(=O)N[C@@H](Cc2ccccc2)C(=O)O)C(C)C)NC(=O)[C@H](Cc2c[nH]c4ccccc24)NC(=O)[C@H](CCCNC(=N)N)NC(=O)[C@H](Cc2c[nH]cn2)NC(=O)[C@H]([C@@H](C)O)NC(=O)[C@H](CCCNC(=N)N)NC(=O)[C@H](CO)NC3=O)NC(=O)[C@H](CCCCN)NC(=O)[C@H](CC(=O)O)NC(=O)[C@H](C)NC(=O)[C@H](CC(=O)O)NC(=O)[C@@H]2CCCN2C1=O [compound 836] (H-DCLGAFRKCIPDADKCCRPNLVCSRTHRWCKYVF-OH; disulfide 2-17, 9-23, 16-30)	5.89	< 5.30	5.39
CC[C@H](C)[C@@H]1NC(=O)[C@@H]2CSSC[C@@H]3NC(=O)[C@H](C(C)C)NC(=O)[C@H](CC(C)C)NC(=O)[C@H](CC(N)=O)NC(=O)[C@@H]4CCCN4C(=O)[C@H](CCCNC(=N)N)NC(=O)[C@H](CSSC[C@H](NC(=O)[C@@H](N)CC(=O)O)C(=O)N[C@@H](CC(C)C)C(=O)NCC(=O)N[C@@H](C)C(=O)N[C@@H](Cc4ccccc4)C(=O)N[C@@H](CCCNC(=N)N)C(=O)N[C@@H](CCCCN)C(=O)N2)NC(=O)[C@H](CSSC[C@@H](C(=O)N[C@@H](CCCCN)C(=O)N[C@@H](Cc2ccc(O)cc2)C(=O)N[C@H](C(=O)N[C@@H](Cc2ccccc2)C(=O)O)C(C)C)NC(=O)[C@H](Cc2c[nH]c4ccccc24)NC(=O)[C@H](CCCNC(=N)N)NC(=O)[C@H](Cc2c[nH]cn2)NC(=O)[C@H]([C@@H](C)O)NC(=O)[C@H](CCCNC(=N)N)NC(=O)[C@H](CO)NC3=O)NC(=O)[C@H](CCCCN)NC(=O)[C@H](CC(=O)O)NC(=O)[C@H](CC(=O)O)NC(=O)[C@H](CC(=O)O)NC(=O)[C@@H]2CCCN2C1=O [compound 837]	5.64	< 5.30	< 5.30
